Molecular target: T1, recombinant human 5-HT6 receptor (Homo sapiens, UniProt P50406)
T1 construct: expressed in transfected cells; membranes
Assay: Radioligand binding, [3H]LSD competition in HEK293 cell membranes
Conditions: competition for [3H]LSD binding, membranes of HEK293 cells expressing recombinant human 5-HT6 receptor; read-out: pKi for 5-HT6 (converted)
Method: The binding activity of compounds of this invention in vitro was determined as follows. Duplicate determinations of 5-HT6 ligand affinity were made by competing for binding of [^3H]LSD in cell membranes derived from HEK293 cells stably expressing recombinant human 5-HT6 receptor. Duplicate determinations of 5-HT2A ligand affinity were made by competing for binding of [^3H]Ketanserin (3-(2-(4-(4-fluorobenzoyl)piperidinol)ethyl)-2,4(1H,3H)-quinazolinedione) in cell membranes derived from CHO-K1 cells stably expressing recombinant human 5-HT2A receptor. Membranes were prepared from HEK 293 cell lines by the method described by Monsma et al., Molecular Pharmacology, Vol. 43 pp. 320-327 (1993), and from CHO-K1 cell lines as described by Bonhaus et al., Br J Pharmacol. June; 115 (4):622-8 (1995).
For estimation of affinity at the 5-HT2A receptor all determinations were made in assay buffer containing 50 mM Tris-HCl, 5 mM ascorbic acid, 4 mM CaCl2, pH 7.4 at 32° C., in a 250 microliter reaction volume.
Assay tubes containing [^3H] […] LSD or [^3H]Ketanserin were determined as radioactive counts per minute using Packard TopCount.
Displacement of [^3H]LSD or [^3H]Ketanserin from the binding sites was quantified by fitting concentration-binding data to a 4-parameter logistic equation: […]

T1 sequence (P50406 whole entry): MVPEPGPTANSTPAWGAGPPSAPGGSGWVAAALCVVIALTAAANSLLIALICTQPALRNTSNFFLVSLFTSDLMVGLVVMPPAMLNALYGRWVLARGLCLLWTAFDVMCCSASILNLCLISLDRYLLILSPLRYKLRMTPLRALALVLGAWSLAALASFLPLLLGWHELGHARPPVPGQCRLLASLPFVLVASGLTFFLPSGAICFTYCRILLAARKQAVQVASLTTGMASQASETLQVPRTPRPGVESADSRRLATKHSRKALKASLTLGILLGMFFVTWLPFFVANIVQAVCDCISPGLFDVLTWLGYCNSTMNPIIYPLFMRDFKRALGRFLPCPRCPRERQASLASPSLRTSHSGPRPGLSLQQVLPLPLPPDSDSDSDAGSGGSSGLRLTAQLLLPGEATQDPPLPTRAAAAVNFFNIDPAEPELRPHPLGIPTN

- Ki: ~100 pM
SMILES: NC[C@@H]1CCCc2cc(S(=O)(=O)c3cccc(F)c3)cc(F)c21 (stereo in doubt) [C-[8-Fluoro-6-(3-fluoro-benzenesulfonyl)-1,2,3,4-tetrahydro-naphthalen-1-yl]-methylamine]

Reference: US7981923B2, “Tetralin and indane derivatives and uses thereof” (Roche Palo Alto LLC, priority 2006, dated 2011)
